Like-named read-outs stand apart in the source and are kept apart here.
Tests used:
Assay type in all cases: in vivo
[1] = test system: Eastern subterranean termites (Reticulitermes flavipes); assay: Thin plate bioassay
Protocol: (§1) A laboratory study was conducted, using recently collected R. flavipes and C. formosanus. Thin plate bioassays were assembled using 0.6 cm glass and 0.6 cm clear Lexan. A sheet of 20.3×66 cm glass was used for the bottom. Two pieces of 2.5×61 cm glass were laid along the long edges, and two pieces of […]. Each arena had 450 g of screened sand evenly applied, and moistened with deionized water to help hold it in place during construction of the arenas. Fisher brand tongue depressors, cut in half, were used as a food source for the termites, and placed at one end of the arena. Prior to adding the Lexan top sheets, 0.6 cm holes were drilled at one end, and three 0.6 cm treatment apertures were drilled equally spaced apart at the center line. One 8 cm Petri dish with a 0.6 cm hole drilled in the bottom was lined up with the hole at the end of the top sheet, and glued down. Glue was allowed to dry for 72 hours. Large binder clips were used to hold the arena together.
(§2) Termiticide solutions were prepared as follows: Fipronil 0.017%; Fipronil 0.03%; Imidacloprid 0.05%; Imi-Fip 0.067% (Imidacloprid 0.05%, Fipronil 0.017%); and Untreated Control (water only). Ten ml of each finished solution of termiticide were applied to each arena: each of the three treatment apertures received 3.3 ml of termiticide. The treatments were allowed to dry for 24 hours, and the treatment apertures were covered with a 2.5×7.5 cm microscope slide. In each Petri dish, 500 worker and 15 soldier termites were added, using either R. flavipes or C. formosanus. Each treatment was replicated four times. Data regarding distance tunneled and mortality were collected daily for eight days. Data was analyzed using Analysis of Variance (ANOVA) and means were separated by Tukey's HSD (Honest Significant Difference test (IBM SPSS v 19).

[2] = test system: Formosan subterranean termites (Coptotermes formosanus); assay: Thin plate bioassay
Protocol: as §1, §2

[3] = test system: Eastern Subterranean Reticulitermes flavipes termites; assay: Transfer effects among nestmates (donor/recipient Petri dish arenas); conditions: Reticulitermes flavipes, donors treated with 50 ppm
Protocol: The purpose of this study was to determine whether there is transference of […] among nestmates of subterranean termites. Arenas for this study consisted of a 15 cm Petri dish. […] Donor and untreated marked control termites were marked using RustOleum® Marking Paint, using methodology described by Keefer et al. 2012.
Two untreated soldier termites for each species were added to each arena to simulate colony dynamics. Post-treatment observations for mortality were made at 4 h and then daily through day 7.

[4] = 0.017% solution, 1 day post-treatment
[5] = 0.017% solution, 2 days post-treatment
[6] = 0.017% solution, 3 days post-treatment
[7] = 0.017% solution, 4 days post-treatment
[8] = 0.017% solution, 5 days post-treatment
[9] = 0.017% solution, 6 days post-treatment
[10] = 0.017% solution, 7 days post-treatment
[11] = 0.017% solution, 8 days post-treatment
[12] = 0.03% solution, 1 day post-treatment
[13] = 0.03% solution, 2 days post-treatment
[14] = 0.03% solution, 3 days post-treatment
[15] = 0.03% solution, 4 days post-treatment
[16] = 0.03% solution, 5 days post-treatment
[17] = 0.03% solution, 6 days post-treatment
[18] = 0.03% solution, 7 days post-treatment
[19] = 0.03% solution, 8 days post-treatment

N#Cc1nn(-c2c(Cl)cc(C(F)(F)F)cc2Cl)c(N)c1[S+]([O-])C(F)(F)F [Fipronil, 5-amino-1-[2,6-dichloro-4-(trifluoromethyl)phenyl]-4-[(1-R,S)(trifluoromethyl)sulfinyl]-1H-pyrazole-3-carbonitrile]
Mean % mortality [1, 4]: 5.25 a % | Mean % mortality [1, 5]: 30.50 a % | Mean % mortality [1, 6]: 75.00 a % | Mean % mortality [1, 7]: 77.50 a % | Mean % mortality [1, 8]: 90.00 b % | Mean % mortality [1, 9]: 95.50 b % | Mean % mortality [1, 10]: 100.00 a % | Mean % mortality [1, 11]: 100.00 a % | Mean % mortality [1, 12]: 0.75 b % | Mean % mortality [1, 13]: 2.25 b % | Mean % mortality [1, 14]: 67.50a % | Mean % mortality [1, 15]: 70.00 a % | Mean % mortality [1, 16]: 90.00 b % | Mean % mortality [1, 17]: 100.00 a % | Mean % mortality [1, 18]: 100.00 a % | Mean % mortality [1, 19]: 100.00 a % | Mean % mortality [2, 4]: 1.37 a % | Mean % mortality [2, 5]: 8.62 b % | Mean % mortality [2, 6]: 15.00 a % | Mean % mortality [2, 7]: 30.60 a % | Mean % mortality [2, 8]: 72.20 a % | Mean % mortality [2, 9]: 72.20 c % | Mean % mortality [2, 10]: 83.50 b % | Mean % mortality [2, 11]: 100.00a % | Mean % mortality [2, 12]: 5.05 a % | Mean % mortality [2, 13]: 17.25ab % | Mean % mortality [2, 14]: 19.75 a % | Mean % mortality [2, 15]: 49.40 a % | Mean % mortality [2, 16]: 70.50 a % | Mean % mortality [2, 17]: 99.25 a % | Mean % mortality [2, 18]: 100.00 a % | Mean % mortality [2, 19]: 100.00a % | mortality at 50 ppm ([3]; 4 h, by treatment (all ratios), 4 h, read-out: Mean % mortality of donors and recipients): 3.75% | mortality at 50 ppm ([3]; 4 h, donor:recipient ratio 1:19, 4 h, read-out: Mean total % mortality of donors and recipients): 3.75% | mortality at 50 ppm ([3]; 4 h, donor:recipient ratio 5:15, 4 h, read-out: Mean total % mortality of donors and recipients): 5% | mortality at 50 ppm ([3]; 4 h, donor:recipient ratio 10:10, 4 h, read-out: Mean total % mortality of donors and recipients): 1.25% | mortality at 50 ppm ([3]; 4 h, donor:recipient ratio 15:5, 4 h, read-out: Mean total % mortality of donors and recipients): 5% | mortality at 50 ppm ([3]; 24 h, by treatment (all ratios), 1 d, read-out: Mean % mortality of donors and recipients): 23.5% | mortality at 50 ppm ([3]; 24 h, donor:recipient ratio 1:19, 1 d, read-out: Mean total % mortality of donors and recipients): 10% | mortality at 50 ppm ([3]; 24 h, donor:recipient ratio 5:15, 1 d, read-out: Mean total % mortality of donors and recipients): 17.5% | mortality at 50 ppm ([3]; 24 h, donor:recipient ratio 10:10, 1 d, read-out: Mean total % mortality of donors and recipients): 17.5% | mortality at 50 ppm ([3]; 24 h, donor:recipient ratio 15:5, 1 d, read-out: Mean total % mortality of donors and recipients): 56.2% | mortality at 50 ppm ([3]; 48 h, by treatment (all ratios), 2 d, read-out: Mean % mortality of donors and recipients): 57.2% | mortality at 50 ppm ([3]; 48 h, donor:recipient ratio 1:19, 2 d, read-out: Mean total % mortality of donors and recipients): 16.2% | mortality at 50 ppm ([3]; 48 h, donor:recipient ratio 5:15, 2 d, read-out: Mean total % mortality of donors and recipients): 53.8% | mortality at 50 ppm ([3]; 48 h, donor:recipient ratio 10:10, 2 d, read-out: Mean total % mortality of donors and recipients): 71.2% | mortality at 50 ppm ([3]; 48 h, donor:recipient ratio 15:5, 2 d, read-out: Mean total % mortality of donors and recipients): 87.5% | mortality at 50 ppm ([3]; 72 h, by treatment (all ratios), 3 d, read-out: Mean % mortality of donors and recipients): 70.3% | mortality at 50 ppm ([3]; 72 h, donor:recipient ratio 1:19, 3 d, read-out: Mean total % mortality of donors and recipients): 22.5% | mortality at 50 ppm ([3]; 72 h, donor:recipient ratio 5:15, 3 d, read-out: Mean total % mortality of donors and recipients): 70% | mortality at 50 ppm ([3]; 72 h, donor:recipient ratio 10:10, 3 d, read-out: Mean total % mortality of donors and recipients): 88.8% | mortality at 50 ppm ([3]; 72 h, donor:recipient ratio 15:5, 3 d, read-out: Mean total % mortality of donors and recipients): 100% | mortality at 50 ppm ([3]; 96 h, by treatment (all ratios), 4 d, read-out: Mean % mortality of donors and recipients): 72.8% | mortality at 50 ppm ([3]; 96 h, donor:recipient ratio 1:19, 4 d, read-out: Mean total % mortality of donors and recipients): 26.2% | mortality at 50 ppm ([3]; 96 h, donor:recipient ratio 5:15, 4 d, read-out: Mean total % mortality of donors and recipients): 72.5% | mortality at 50 ppm ([3]; 96 h, donor:recipient ratio 10:10, 4 d, read-out: Mean total % mortality of donors and recipients): 92.5%

Source: patent US12446584B2, “Termiticide composition and methods for treating termites” (ADAMA MAKHTESHIM LTD., priority 2013, dated 2025)
